{
  "source": "patent EP0526502B1",
  "about": "“PHENOLIC AMINE DEPIGMENTING AND ANTIMELANOMA AGENTS” (The Governors of the University of Alberta, priority 1990, dated 1991)",
  "key": {"[1]": {"experiment": "Acute toxicity / lethal dose and maximum tolerable dose", "method": "3:1-85 1972. In accordance with this Protocol, ten to fifteen mice were used in each test group. They were weighed and randomized at day one after s.c. inoculation of B16 melanoma cells. From day five, the phenolic melanin precursors were administered i.p. daily for nine days. The test compounds were dissolved in normal saline, and sterilized by heating to 100°C for 2 minutes. […] They were administered i.p. with the following doses: 400 mg/Kg - 4-S-CAP; 200 to 300 mg/Kg - 4-S-CAP; and 200 to 1200 mg/Kg - N-Ac-4-S-CAP. A catalytic amount of L-dopa, 25 mg/Kg and antidecarboxylase, carbidopa, 400 mg/Kg, were also administered. Carbidopa was given one hour prior to L-dopa administration. DTIC (NSC 4538) was used as a control drug at a dose of 60 mg/Kg. Acute toxicity of 4-S-CP and 4-S-CAP was evaluated from 100 to 1600 mg/Kg.\nThe B16 mouse melanoma was maintained by s.c. inoculation of tumour cells into the back of C57BL7J mice (5 to 6 weeks, female). […] Briefly, excised tumours were homogenized in normal saline. The homogenized tumour cells were then passed through a sterile 80 mesh stainless steel screen, washed with normal saline, centrifuged (500 g. for 10 minutes) and resuspended in normal saline. Suspensions of viable melanoma cells at the concentration of 1 x 10⁶ per 0.1 ml were inoculated s.c. into both the right and left inguinal areas of C57BL/6J mice (female, 5 to 6 weeks old, 18 to 20 gm)."}, "melanocytes": {"tested_on": "melanocytes", "experiment": "Light and electron microscopy of melanocytes in regrowing hair follicles", "assay_type": "in vivo, mice", "method": "In six groups of 4 mice (1 control and 1 for each compound) were treated daily with the control or compound injected i.p. The compounds tested were 4-S-CAP, N-Ac-4-S-CAP and α-Me-4-S-CAP. Samples of skin and regrowing hair follicles were excised under brief general anaesthesia on day 10 (late anagen phase), fixed in Karnovsky's solution (2.5% glutaraldehyde and 2.5% paraformaldehyde in 0l1 M cacodylate buffer), and refixed in 1% osmium tetroxide in cadodylate buffer. Tissues were stained en bloc with 1.5% uranyl acetate in o.1 M veronal buffer for 30min, dehydrated in graded ethanol solutions, embedded in epoxy resin, and sectioned with a Potter-Blum ultramicrotome MT II. Sections 1.0 »m thick were stained with methylene blue for light microscopy, thin sections were stained with led citrate for electron microscopy."}, "follicular melanocytes": {"tested_on": "follicular melanocytes", "experiment": "Depigmentation of new hair after plucking (PTCA/eumelanin content of hair follicles)", "assay_type": "in vivo, C57BL/6J black mice", "conditions": "for PTCA Content / Depigmentation: 300 mg/kg daily for 14 days, hair harvested day 22; for Depigmentation: 300 mg/kg", "method": "Breeding pairs of C57BL/6J black mice were purchased from Jackson Laboratory, Bar Harbor, Maine. Female progeny were used in this testing when approximately 8 weeks old and weighing 17 grams.\nBlack hairs were plucked manually from the back of the mice to initiate new anagen growth and activate follicular melanocytes with increased tyrosinase activity. Thirty mice were randomized into 6 groups of 5 (1 control and 1 for each compound). Starting on day 1, daily for 14 days the agent was injected i.p. or was infiltrated s.c. in an area where hair follicles had been plucked; the dose was 300 mg/kg body weight.\nIn the same 30 mice, hair follicles were harvested on day 22 (early telogen phase) and their eumelanin content analyzed. Details of the assay, including chemical degration of melanin and high-performance liquid chromatography (HPLC) were as described in Ito et al, \"Quantitative Analysis of Eumelanin and Pheomelanin in Hair and Melanosomes\" J. Invest. Dermatol 80:268-272, 1983. Briefly, a 10-mg hair sample is homogenized in water at a concentration of 10 mg/ml; the 200-»l homogenate is transferred to a screw-capped test tube, mixed with 1M H₂SO₄ (800 »L) and oxidized with 3% KMnO₄. The product, pyrrole-2,3,5-tricarboxylic acid (PTCA), is analyzed by HPLC with a UVL detector; samples are measured in duplicate. The eumelanin content is expressed as PTCA (ng/mg) against the PCTA content of BALB/c albino mice as control (≦ 10 ng/mg, the background value with our method, in which 1 ng corresponds roughly to a eumelanin content of 50 ng), and the degree of depigmentation is expressed as a percentage: (PTCA content of control sampleminusPTCA content of experimental sample)/(PCTA content of control sample) x 100 [formula] ."}},
  "data": [
    {"compound": "CC(=O)NCCSc1ccc(O)cc1", "note": "[N-Ac-4-S-CAP, N-ACETYL-4-S-CYSTEAMINYLPHENOL]", "values": [
      {"measurement": "lethal dose", "setting": "[1]; acute toxicity, mice", "result": 1400, "unit": "mg/kg"},
      {"measurement": "per single dose toxicity levels", "setting": "[1]; experimental tests on animals, single dose", "result": "~1,400 mg/kg of body weight"},
      {"measurement": "LD50", "setting": "[1]; mouse, in vivo, ip", "result": 1400, "unit": "mg/kg"},
      {"measurement": "light microscopy of hair follicles: functioning melanocytes and melanin pigments", "setting": "melanocytes; i.p. daily, day 10 (late anagen phase)", "result": "neither functioning melanocytes nor melanin pigments remained in the follicles"},
      {"measurement": "electron microscopy of hair follicles: melanocytes and melanosomes", "setting": "melanocytes; i.p. injection for 10 days", "result": "no melanocytes or melanosomes were visible"},
      {"measurement": "PTCA Content", "setting": "follicular melanocytes; Route s.c.", "result": "30.8 ± 9.1", "unit": "ng/mg"},
      {"measurement": "Depigmentation", "setting": "follicular melanocytes; Route s.c.", "result": 97.2, "unit": "%"},
      {"measurement": "PTCA Content", "setting": "follicular melanocytes; Route: i.p.", "result": "26.0 ± 10.3", "unit": "ng/mg"},
      {"measurement": "Depigmentation", "setting": "follicular melanocytes; Route: i.p.", "result": 97.6, "unit": "%"},
      {"measurement": "visible pigmentation of new hair", "setting": "follicular melanocytes; i.p. or s.c. route, result in words", "result": "almost pure white as in albino mice"}
    ]}
  ]
}
